# “Also recorded” adds a separate entry of the source. Marks after values point to notes of the source that are not given here.
# Experiments:
# δ-opioid receptor [1] = biological target: T1, δ-opioid receptor (Rattus norvegicus, UniProt P33533); experiment: Competitive receptor binding assay, synaptic membrane fraction, [3H]DPDPE; conditions: rat brain synaptic membrane, read-out: Affinity of receptor (Ki, nM) δ
# T1 construct: synaptic membrane fraction obtained from the rat brain tissue; from tissue; host or cells: Sprague-Dawley rat brain without cerebellum, synaptic membrane (P2) fraction
# T1 sequence (P33533 whole entry): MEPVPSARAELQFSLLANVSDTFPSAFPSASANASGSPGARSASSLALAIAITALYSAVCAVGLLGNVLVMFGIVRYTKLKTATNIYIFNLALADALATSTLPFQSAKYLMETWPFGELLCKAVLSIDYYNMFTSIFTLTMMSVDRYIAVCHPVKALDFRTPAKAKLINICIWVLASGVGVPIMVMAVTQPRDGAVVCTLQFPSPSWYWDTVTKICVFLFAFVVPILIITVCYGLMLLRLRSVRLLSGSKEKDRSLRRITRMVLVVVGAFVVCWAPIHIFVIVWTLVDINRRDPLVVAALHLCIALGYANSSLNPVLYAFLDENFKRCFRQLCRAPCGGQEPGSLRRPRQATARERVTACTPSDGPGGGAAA
# Experimental: Regarding the opioid peptide derivatives synthesized in Examples and Reference Examples, the μ- and δ-opioid receptor affinities were obtained by a competitive receptor assay using the synaptic membrane fraction obtained from the rat brain tissue according to the known methods. That is, Sprague-Dawley rats having an average weight of 150-180 g were killed by decapitation, the brain tissue from which cerebellum had been removed was homogenized in 0.32M sucrose and 1 mM HEPES (pH 7.5) containing 50 μg/ml soybean trypsin inhibitor, fractionated and centrifuged to obtain the synaptic membrane fraction (P2 fraction), which was pre-incubated in 50 mM HEPES (pH 7.5) containing 100 mM NaCl, 0.1 mM GDP and soybean trypsin inhibitor to remove endogenous ligands from the P2 fraction.
# A competitive receptor binding assay (Radiolabeled receptor assay: RRA) based on an exchange reaction between a radioactive ligand for the synaptic membrane fraction and a peptide derivative to be tested was performed by using tritium-labeled [^3H]DAGO which is a μ-opioid receptor agonist and tritium-labeled [^3H]DPDPE which has the high δ-opioid receptor selectivity, and incubating an aliquot of the synaptic membrane with the peptide derivative to be tested for a period of time. Upon this, an exchange reaction between a ligand was performed under constant conditions, the radiation remaining in the synaptic membrane fraction was measured, and an amount of the ligand adsorbed onto the synaptic membrane fraction is calculated. By assuming that binding with a receptor occurs in competition between a radioactive ligand and an end ligand, the concentration (IC50) at which the maximum specific binding of the radioactive ligand is 50% inhibited was obtained, from which the affinity constant (Ki) was calculated by a method of Cheng et al. (Biochem. Pharmcol., 22, 3099(1973)).
# δ-opioid receptor [2] = biological target: T2, δ-opioid receptor (Mus musculus, UniProt P32300); experiment: Mouse seminiferous tract (MVD) assay, inhibition of electrically stimulated constriction; format: cell-based; conditions: agonist activity, read-out: MVD (IC50 ± S.E.)
# T2 construct: using mouse seminiferous tract in place of guinea pig ileum; from tissue; host or cells: mouse seminiferous tract (vas deferens, MVD), organ bath
# T2 sequence (P32300 whole entry): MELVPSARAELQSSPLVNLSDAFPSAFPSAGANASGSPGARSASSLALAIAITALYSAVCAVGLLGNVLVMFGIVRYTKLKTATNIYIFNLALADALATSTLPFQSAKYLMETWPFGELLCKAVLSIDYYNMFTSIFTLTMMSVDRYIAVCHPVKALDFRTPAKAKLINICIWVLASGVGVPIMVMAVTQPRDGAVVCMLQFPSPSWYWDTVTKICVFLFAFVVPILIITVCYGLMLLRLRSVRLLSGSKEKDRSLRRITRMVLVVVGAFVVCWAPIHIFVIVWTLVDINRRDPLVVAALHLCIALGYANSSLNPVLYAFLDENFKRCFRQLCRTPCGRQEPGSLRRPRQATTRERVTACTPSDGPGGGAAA
# SD Male rats [3] = experiment: Analgesic effect, Randoll-Seritto hind limb pressure method, intracerebroventricular administration; format: in vivo; conditions: rat, i.c.v.
# Description: (§1) SD Male rats, weighing 110 to 130 g, were used. One group consisted of five rats. The analgesic effects were examined by a Randoll-Seritto method. […] The threshold was expressed in mm Hg. During the measurement, the upper limit of the pressure applied to a hind limb was 100 mm Hg in order to avoid damage of the tissues.
# 1) When performing intracerebroventricular administration (i.c.v.), a rat was fixed to a brain stereotactic fixing apparatus under slight ether anesthesia, the skin at a head was dissected, and an administration cannula was inserted into a place at a transverse of […] from a bregma position and a depth of 3.5 to 4.0 mm. The administration volume was 10 μl/animal. Observation of the analgesic action was performed before administration, and at 30 minutes, and 1, 2, 3, 4 and 5 hours after administration. Doses of both compounds were 0.1, 1 and 10 μg/animal. Separately, a group to which 5 mg/kg of naltrexone hydrochloride was administered subcutaneously immediately after compound of Ex.1 10 μg/animal i.c.v and a group to which 5 mg/kg of naltrexone hydrochloride was administered subcutaneously immediately after compound of Ex.4 10 μg/animal i.c.v. was made. In addition, as morphine hydrochloride at a dose of 3 μg/animal i.c.v. group was used as a positive control group and a physiological saline 10 μl/animal i.c.v. group as a control group was made, respectively.
# (§2) In order to perform a significant difference test between respective administration groups and control groups, and between values at respective times before administration and after administration, a Dunnet multiple comparative test method was used. In the statistical processing for performing a significant difference test between morphine hydrochloride administration groups and control groups, Student t-test was used. For performing a significant difference test between values at respective times before administration and after administration in morphine hydrochloride administration groups, a Dunnet multiple comparative test method was used. A significant level was at 5 or lower % risk rate (two-tailed test).
# SD Male rats [4] = experiment: Analgesic effect, Randoll-Seritto hind limb pressure method, intravenous administration; format: in vivo; conditions: rat, i.v.
# Experimental: as §1
# 2) When administered intravenously (i.v.), a volume of 2 ml/kg weight was administered to a tail vein and, when administered subcutaneously (s.c.), a volume of 2 ml/kg weight was subcutaneously administered to the back. In the case of intravenous administration, a 1 mg/kg, 3 mg/kg or 10 mg/kg compound of Ex.1 administration group, a 1 mg/kg, 3 mg/kg or 10 mg/kg compound of Ex.4 administration group, a 2 ml/kg physiological saline administration group and a 5 mg/kg morphine hydrochloride administration group were made, respectively. In the case of subcutaneous administration, a 10 mg/kg, 30 mg/kg or 100 mg/kg compound of Ex.1 administration group, a 10 mg/kg, 30 mg/kg or 100 mg/kg compound of Ex.4 administration group, a 2 ml/kg physiological saline administration group and a 5 mg/kg morphine hydrochloride administration group were made, respectively. Observation of the analgesic action was performed 15 minutes, 30 minutes, 1 hour and 2 hours after administration in the case of intravenous administration, 30 minutes, 1 hour, 2 hours and 3 hours after administration in the case of subcutaneous administration, respectively.
# as §2
structure (smiles),measurement,setting,value
"Cc1cc(O)cc(C)c1C[C@H](N)C(=O)NCCCCCCNC(=O)[C@@H](N)Cc1c(C)cc(O)cc1C [Ex.4, 1,6-Bis(Dmt-amino)hexane.2HCl]",Ki,δ-opioid receptor [1],46.1 ± 8.8 nM
same,IC50,δ-opioid receptor [2],> 10000 nM
same,Threshold (mmHg),"SD Male rats [3]; 0.1 μg/animal, 0.5 hr",47 ± 2 mmHg
same,Threshold (mmHg),"SD Male rats [3]; 0.1 μg/animal, 1 hr",47 ± 1 mmHg
same,Threshold (mmHg),"SD Male rats [3]; 0.1 μg/animal, 2 hr",50 ± 2 mmHg
same,Threshold (mmHg),"SD Male rats [3]; 0.1 μg/animal, 3 hr",49 ± 2 mmHg
same,Threshold (mmHg),"SD Male rats [3]; 0.1 μg/animal, 4 hr",49 ± 2 mmHg
same,Threshold (mmHg),"SD Male rats [3]; 0.1 μg/animal, 5 hr",47 ± 1 mmHg
same,Threshold (mmHg),"SD Male rats [3]; 0.1 μg/animal, before administration",45 ± 2 mmHg
same,"Change in escape reaction threshold / analgesic effect, in words",SD Male rats [3]; 1 μg/animal,significant increase in the threshold was seen 4 hours and 5 hours after administration
same,Threshold (mmHg),"SD Male rats [3]; 1 μg/animal, 0.5 hr",51 ± 2 mmHg
same,Threshold (mmHg),"SD Male rats [3]; 1 μg/animal, 1 hr",51 ± 2 mmHg
same,Threshold (mmHg),"SD Male rats [3]; 1 μg/animal, 2 hr",51 ± 3 mmHg
same,Threshold (mmHg),"SD Male rats [3]; 1 μg/animal, 3 hr",50 ± 2 mmHg
same,Threshold (mmHg),"SD Male rats [3]; 1 μg/animal, 4 hr","53 ± 2*^,$ mmHg"
same,Threshold (mmHg),"SD Male rats [3]; 1 μg/animal, 5 hr","52 ± 1*^,$ mmHg"
same,Threshold (mmHg),"SD Male rats [3]; 1 μg/animal, before administration",46 ± 1 mmHg
same,"Change in escape reaction threshold / analgesic effect, in words",SD Male rats [3]; 10 μg/animal,significant change in the threshold was not seen at any time after administration
same,Threshold (mmHg),"SD Male rats [3]; 10 μg/animal + Naltrexon 5 mg/kg s.c., 0.5 hr","55 ± 2*^,$ mmHg"
same,Threshold (mmHg),"SD Male rats [3]; 10 μg/animal + Naltrexon 5 mg/kg s.c., 1 hr","52 ± 2*^,$ mmHg"
same,Threshold (mmHg),"SD Male rats [3]; 10 μg/animal + Naltrexon 5 mg/kg s.c., 2 hr",51 ± 2 mmHg
same,Threshold (mmHg),"SD Male rats [3]; 10 μg/animal + Naltrexon 5 mg/kg s.c., 3 hr",51 ± 1 mmHg
same,Threshold (mmHg),"SD Male rats [3]; 10 μg/animal + Naltrexon 5 mg/kg s.c., 4 hr","52 ± 1*^,$ mmHg"
same,Threshold (mmHg),"SD Male rats [3]; 10 μg/animal + Naltrexon 5 mg/kg s.c., 5 hr",50 ± 1 mmHg
same,Threshold (mmHg),"SD Male rats [3]; 10 μg/animal + Naltrexon 5 mg/kg s.c., before administration",46 ± 1 mmHg
same,"Change in escape reaction threshold / analgesic effect, in words",SD Male rats [3]; 10 μg/animal followed by naltrexone 5 mg/kg s.c.,"significant increase in the threshold was seen 30 minutes, 1 hour and 4 hours after administration"
same,Threshold (mmHg),"SD Male rats [3]; 10 μg/animal, 0.5 hr",50 ± 2 mmHg
same,Threshold (mmHg),"SD Male rats [3]; 10 μg/animal, 1 hr",47 ± 0 mmHg
same,Threshold (mmHg),"SD Male rats [3]; 10 μg/animal, 2 hr",49 ± 2 mmHg
same,Threshold (mmHg),"SD Male rats [3]; 10 μg/animal, 3 hr",48 ± 2 mmHg
same,Threshold (mmHg),"SD Male rats [3]; 10 μg/animal, 4 hr",48 ± 2 mmHg
same,Threshold (mmHg),"SD Male rats [3]; 10 μg/animal, 5 hr",49 ± 1 mmHg
same,Threshold (mmHg),"SD Male rats [3]; 10 μg/animal, before administration",46 ± 1 mmHg
same,Threshold (mmHg),"SD Male rats [4]; 3 mg/kg, 0.25 hr",57 ± 4 mmHg
same,Threshold (mmHg),"SD Male rats [4]; 3 mg/kg, 0.5 hr",54 ± 3 mmHg
same,Threshold (mmHg),"SD Male rats [4]; 3 mg/kg, 1 hr",54 ± 5 mmHg
same,Threshold (mmHg),"SD Male rats [4]; 3 mg/kg, 2 hr",53 ± 3 mmHg
same,Threshold (mmHg),"SD Male rats [4]; 3 mg/kg, before administration",48 ± 2 mmHg
same,Threshold (mmHg),"SD Male rats [4]; 10 mg/kg, 0.25 hr",54 ± 3 mmHg
same,Threshold (mmHg),"SD Male rats [4]; 10 mg/kg, 0.5 hr",53 ± 3 mmHg
same,Threshold (mmHg),"SD Male rats [4]; 10 mg/kg, 1 hr",57 ± 2 mmHg
same,Threshold (mmHg),"SD Male rats [4]; 10 mg/kg, 2 hr",52 ± 2 mmHg
same,Threshold (mmHg),"SD Male rats [4]; 10 mg/kg, before administration",49 ± 2 mmHg
same,"Change in escape reaction threshold / analgesic effect, in words","SD Male rats [4]; all doses (1, 3, 10 mg/kg)",significant change in the threshold was not seen at any measuring time at any dose; also recorded: no analgesic effect was seen
